# Data: publication PMC11784839, “Monoaminergic neurotransmitters are bimodal effectors of tau aggregation” (Science Advances, 2025)
# Target: tau (Homo sapiens, UniProt P10636)
# Test: MCE Phenols Library screening, tau biosensor cell seeding assay (AvZ)
# Type: cell-based
# Conditions: for Z repl 1 / Z Repl 2: Z score; for Z repl 1 / raw data 1: replicate 1; for Z Repl 2 / raw data 2: replicate 2; for AvZ (average z score of seeding, SDs from the mean level of seeding): 10 μM phenol in cell cultures, AD brain homogenate preincubated 16 hours, two biological replicates, positive = catalyzes seeding, negative = inhibits
# [1] = average Z score of two replicates, Phenols Library screen
# [2] = average Z score of the two replicates, tau seeding
# [3] = average Z score of the two replicates, MCE Phenols Library screen
# [4] = average puncta of the two replicates
# [5] = average Z score of the two replicates, tau biosensor seeding, MCE Phenols Library screen
# tau, sequence (P10636 623-695 limits assumed): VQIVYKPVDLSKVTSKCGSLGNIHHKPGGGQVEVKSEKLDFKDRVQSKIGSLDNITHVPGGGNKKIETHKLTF
SMILES,Z repl 1,Z Repl 2,av Z [1],av puncta (average of raw data 1 and 2),raw data 1 (puncta),raw data 2 (puncta),av Z [2],"AvZ (average z score of seeding, SDs from the mean level of seeding)",av Z [3],av puncta [4],raw data 1 (raw puncta),raw data 2 (raw puncta),av Z [5]
N[C@@H](Cc1c[nH]c2ccc(O)cc12)C(=O)O [L-5-Hydroxytryptophan],0.279,-0.269,,19792.1,29696.2,9887.95,,0.005,,,,,
COc1cc2c(cc1O)-c1c(OC)c(O)cc3c1[C@H](C2)NCC3 [Laetanine],-0.508,-0.181,,,,,,,-0.344,15544.8,20251.6,10838.1,
CC[C@@H](C(=O)[C@@H](C)[C@@H](O)[C@H](C)CCc1ccc(C)c(O)c1C(=O)O)[C@H]1O[C@](CC)([C@H]2CC[C@](O)(CC)[C@H](C)O2)C[C@@H]1C [Lasalocid],0.41,-0.218,0.096,20851.6,31268.6,10434.5,,,,,,,
COc1cc(C(=O)OCCCCNC(=N)N)cc(OC)c1O [Leonurine],1.449,1.251,,34936.6,43747.9,26125.3,,1.35,,,,,
Oc1cc(O)c2c(c1)O[C@H](c1ccc(O)c(O)c1)[C@@H](O)[C@H]2O [Leucocyanidin],-0.147,-0.356,,,,,,,-0.251,16774.6,24584.1,8965.07,
COc1cc2c(cc1OC)[C@@H](Cc1ccc(O)c(Oc3cc4c(cc3OC)CCN(C)[C@@H]4Cc3ccc(O)cc3)c1)N(C)CC2 [Liensinine],-0.418,-0.081,,,,,,,-0.249,16619,21336.6,11901.3,
O=C(/C=C/c1ccc(O)c2c1[C@H](C(=O)O)[C@@H](c1ccc(O)c(O)c1)O2)O[C@H](Cc1ccc(O)c(O)c1)C(=O)O [Lithospermic acid],-1.337,-0.834,,7079.11,10304.3,3853.96,,,-1.085,,,,
COc1ccc(CCC(=O)c2ccc(O)cc2)c(OC)c1 [Loureirin A],-0.527,0.435,-0.046,18718.9,20023.7,17414.1,,,,,,,
O=C(O)[C@H]1O[C@@H](Oc2cc(O)c3c(=O)cc(-c4ccc(O)c(O)c4)oc3c2)[C@H](O)[C@@H](O)[C@@H]1O [Luteolin 7-O-glucuronide],-0.6,-0.013,,,,,,,-0.307,15884.9,19142,12627.8,
Oc1cc(O)c2ccc(-c3ccc(O)c(O)c3)[o+]c2c1.[Cl-] [Luteolinidin (chloride)],-0.952,-1.154,,7678.85,14921.6,436.094,,,-1.053,,,,
C=CCc1ccc(O)c(-c2cc(CC=C)ccc2O)c1 [Magnolol],0.295,1.074,,27065.9,29891.7,24240.1,0.685,,,,,,
O=C(CCCCCCCCc1ccc(O)c(O)c1)c1c(O)cccc1O [Malabaricone C],-0.224,0.189,-0.018,19220,23659,14781.1,,,,,,,
C[C@@H]1O[C@@H](OC[C@H]2O[C@@H](Oc3c(-c4ccc(O)cc4)oc4cc(O)cc(O)c4c3=O)[C@H](O[C@@H]3O[C@@H](C)[C@H](O)[C@@H](O)[C@H]3O)[C@@H](O)[C@H]2O)[C@H](O)[C@H](O)[C@H]1O [Mauritianin],0.781,1.032,,29752.2,35719.4,23785,,,,,,,0.906
O=c1cc(-c2ccc(O)cc2)oc2cc(O)c([C@@H]3O[C@H](CO)[C@@H](O)[C@H](O)[C@H]3O[C@@H]3O[C@H](CO)[C@@H](O)[C@H](O)[C@H]3O)c(O)c12 [Meloside A],-1.304,-0.878,,7038.23,10691.8,3384.65,,,-1.091,,,,
COc1ccc(O)cc1 [Mequinol],0.5,0.017,,22646.3,32350,12942.5,,0.258,,,,,

# Second part, the compound after the results:
Z repl 1,Z Repl 2,av Z [1],av puncta (average of raw data 1 and 2),raw data 1 (puncta),raw data 2 (puncta),av Z [2],"AvZ (average z score of seeding, SDs from the mean level of seeding)",av Z [3],av puncta [4],raw data 1 (raw puncta),raw data 2 (raw puncta),av Z [5],SMILES
0.564,-0.398,0.083,20816.6,33117.8,8515.32,,,,,,,,C=C(C)[C@H](CC=C(C)C)Cc1c(O)cc(OC)c2c1O[C@H](c1ccc(O)cc1O)[C@@H](O)C2=O [Kushenol I]
0.063,0.629,,23290.6,27102.4,19478.8,0.346,,,,,,,CC(C)=CCc1c(-c2ccc(O)cc2O)oc2c([C@H]3C=C(C)C[C@@H](c4ccc(O)cc4O)[C@@H]3C(=O)c3ccc(O)cc3O)c(O)cc(O)c2c1=O [Kuwanon G]
-0.22,0.532,,21077.1,23703,18451.1,0.156,,,,,,,CC(C)=CCc1c(O)ccc(C(=O)[C@@H]2[C@@H](c3c(O)cc(O)c4c(=O)c(CC=C(C)C)c(-c5ccc(O)cc5O)oc34)C=C(C)C[C@H]2c2ccc(O)cc2O)c1O [Kuwanon H]
-0.298,0.052,-0.123,18045.6,22771.5,13319.6,,,,,,,,C=C(C)[C@H](CC=C(C)C)Cc1c(O)cc(O)c2c1O[C@H](c1ccc(O)cc1OC)CC2=O [Leachianone A]
0.138,0.907,,25231,28009.4,22452.6,0.523,,,,,,,COc1c(/C=C/C(=O)c2ccc(O)c(CC=C(C)C)c2)ccc(O)c1O [Licochalcone D]
1.035,0.525,,28570.9,38768.9,18372.9,,,,,,,0.78,CC(C)=CCc1cc2c(=O)cc(-c3ccc(O)cc3)oc2cc1O [Licoflavone A]
0.131,-0.067,0.032,19987.6,27927.2,12048,,,,,,,,O=C1C[C@@H](c2ccc(O[C@@H]3O[C@H](CO)[C@@H](O)[C@H](O)[C@H]3O)cc2)Oc2cc(O)ccc21 [Liquiritin]
1.015,0.248,,26974.5,38536.8,15412.2,0.631,,,,,,,COc1cc(OC)c(CCC(=O)c2ccc(O)cc2)c(OC)c1 [Loureirin B]
0.331,-0.667,-0.168,17984.5,30325.1,5643.99,,,,,,,,O=C1c2ccccc2C(=O)c2c1cc(O)c(CO)c2O [Lucidin]
-0.381,-0.64,,,21773.2,5935.58,,,-0.51,13854.4,,,,COc1ccc(-c2oc3c(CCC(C)(C)O)c(O[C@@H]4O[C@H](CO)[C@@H](O)[C@H](O)[C@H]4O)cc(O)c3c(=O)c2O)cc1 [Maohuoside A]
